The record followed here is PubChem BioAssay (NCI).

Holding throughout (test): NCI-60 cell line screen, 48 h
In assay [1] the test system is RPMI-8226 leukemia.
Assay [2] deals with CCRF-CEM leukemia.
For assay [3], the system named is MALME-3M melanoma.
Assay [4] has as its system A498 renal.
In assay [5] the test system is SNB-19 CNS.
Assay [6] deals with HOP-92 NSCLC.
In assay [7] the test system is SK-OV-3 ovarian.
In assay [8] the test system is K-562 leukemia.
Assay [9] relates to SK-MEL-5 melanoma.
Assay [10] has as its system RXF 393 renal.
Assay [11] relates to T-47D breast.
For assay [12], the system named is SF-539 CNS.

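Values below derive from 48-hour exposures of cells grown in 96-well plates, with endpoints linearly interpolated between the two concentrations bracketing the appropriate inhibition level. TGI: total growth inhibition.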

Turning to `NC1=NC(OCC2(CO)CCC2)C=C(NCC2(CO)CCC2)N1` (configuration not stated), the TGI in [1], in [2], in assay [3], in assay [4], in assay [5] and in assay [6] was over 100 µM each time. The TGI in assay [7], in [8], in assay [9], in [10] and in [11] was over 100 µM in each case.
For `O=S1(=O)CCN(Cc2ccccc2)/C1=N\S(=O)(=O)c1ccc(Cl)cc1`, the TGI in assay [1] is 79 µM; in [2], 85.5 µM; in [4] it was 73.5 µM; in assay [5], over 100 µM; in assay [6], 35.3 µM; in assay [7], over 100 µM. Further, the TGI in assay [12] was 36.1 µM; in assay [8], over 100 µM; in [9], 41.9 µM; in [10], 34.6 µM; in [11], 39.5 µM.
`C/C=C(/C)C(=O)O[C@H]1C(C)=C[C@]23C(=O)[C@@H](C=C(COC(C)=O)[C@@H](O)[C@]12O)[C@H]1[C@@H](C[C@H]3C)[C@@]1(C)OC(=O)/C(C)=C\C`: the TGI was found to be 5.21 µM in assay [2]; 3.89 µM in assay [3]; 6.07 µM in assay [4]; 5.92 µM in assay [5]; 6.34 µM in assay [6]; 8.2 µM in assay [7]. The TGI in [12] was determined as 5.88 µM; in assay [8], 6.81 µM; in assay [9], 3.84 µM; in assay [10], 5.25 µM; in [11], 3.29 µM.
Consider `CCCCc1c2c(nc3c1CCC/C3=C\c1ccccc1)C(=O)C(CN(C)C)CC2` (configuration not stated), for which the TGI is 31.8 µM in [1]; 33 µM in assay [2]; 40.4 µM in [3]; 33.2 µM in assay [4]; 32.6 µM in assay [5]; 33.5 µM in assay [6]. Further, the TGI was 40.6 µM in [7]; 36.5 µM in [12]; 21.5 µM in assay [8]; 30.9 µM in [9]; 30.9 µM in [10]; 14 µM in assay [11].
Turning to `O=C1N=C(c2ccccc2)O/C1=C\c1ccccc1`, the TGI in assay [1], in assay [3], in assay [4], in [5], in [6] and in assay [7] was over 100 µM in each case. Moreover, the TGI in assay [12], in assay [9], in [10] and in assay [11] was over 100 µM each time.
For the compound `C=C(C)[C@@H]1CC[C@]2(C(=O)O)CC[C@]3(C)[C@H](CC[C@@H]4[C@@]5(C)CC[C@H](C(=O)/C=C/c6ccc(O)cc6)C(C)(C)[C@@H]5CC[C@]43C)[C@@H]12`, the TGI came out at 23.6 µM in assay [2]; 70.1 µM in [3]; 26.5 µM in [4]; 27.7 µM in [5]; 29.2 µM in [6]; 36.3 µM in assay [7]. Also, the TGI in assay [12] is 20.3 µM; in assay [8] it was over 100 µM; in [9], 10.4 µM; in assay [10], 65.1 µM; in [11], 20.7 µM.
Turning to `CC1C[C@]2(C)C(=S)Nc3ccccc3[C@@H]2Nc2ccccc21` (some centres not stated), the TGI in [1] is over 100 µM; in [2] it was 54.4 µM; in assay [3], 30.8 µM; in [4] it was 36.3 µM; in [5], 57.4 µM; in assay [6], 25.2 µM. In addition, the TGI in assay [12] is 34.2 µM; in [8] it was over 100 µM; in assay [9], 31.7 µM; in [10], 34.8 µM; in [11], 41 µM.
For `COC(=O)[C@H](Cc1ccccc1)NC(=O)N1CCN(C(=O)N[C@@H](Cc2ccccc2)C(=O)OC)CCN(C(=O)N[C@@H](Cc2ccccc2)C(=O)OC)CC1`, the TGI in assay [1], in assay [2], in assay [3], in [4], in assay [5] and in assay [6] was over 100 µM in each case. Besides, the TGI in assay [7], in assay [8], in assay [9], in [10] and in assay [11] was over 100 µM each time.
As for `COC(=N)C12C(N)=NC(OC)(OC)C1(C#N)C21C(=O)N(c2ccccc2)N=C1C` (configuration not stated), the TGI in assay [1], in assay [2], in assay [3], in assay [4], in assay [5] and in [6] was over 100 µM in each case. In addition, the TGI in assay [7], in assay [12], in assay [8], in assay [10] and in [11] was over 100 µM each time.
Regarding `CCOC(=O)c1c(NC(=O)Nc2ccccc2)c(C(N)=O)c2n1CCCCC2`, the TGI in assay [1], in [2], in [4], in [5], in assay [6] and in assay [7] was over 100 µM throughout. The TGI in [12], in assay [8], in assay [9], in assay [10] and in assay [11] was over 100 µM each time.
With `Cc1sc2nc3n(c(=O)c2c1C)N=C(c1ccc(Cl)cc1)CS3`, the TGI in assay [1], in assay [2], in assay [3], in [4], in assay [6] and in [7] was over 100 µM in each case. For the same compound, the TGI in assay [12], in assay [8], in assay [9], in [10] and in assay [11] was over 100 µM throughout.
In the case of `CCOC(=O)c1nc2ccc(C(F)(F)F)cc2nc1Oc1ccc(F)cc1`, the TGI in [1], in assay [2], in [4], in [5], in assay [6] and in [7] was over 100 µM each time. Besides, the TGI in assay [12], in assay [8], in assay [9], in [10] and in assay [11] was over 100 µM throughout.
